# Key:
# [1] = Effect on nitric oxide release in pH 7.4 PBS buffer at 37 degC after 1.5 hrs; format: functional
# [2] = species on record: Ovis aries; assay: Selectivity index, ratio of IC50 for ovine COX1 to IC50 for ovine COX2
# [3] = Effect on nitric oxide release in pH 7.4 PBS buffer in presence of rat serum at 37 degC after 1.5 hrs; format: functional
# [4] = biological target: T1, Prostaglandin G/H synthase 1 (Ovis aries, UniProt P05979); assay: Inhibition of ovine COX1 by enzyme immuno assay
# T1 sequence (P05979 whole entry): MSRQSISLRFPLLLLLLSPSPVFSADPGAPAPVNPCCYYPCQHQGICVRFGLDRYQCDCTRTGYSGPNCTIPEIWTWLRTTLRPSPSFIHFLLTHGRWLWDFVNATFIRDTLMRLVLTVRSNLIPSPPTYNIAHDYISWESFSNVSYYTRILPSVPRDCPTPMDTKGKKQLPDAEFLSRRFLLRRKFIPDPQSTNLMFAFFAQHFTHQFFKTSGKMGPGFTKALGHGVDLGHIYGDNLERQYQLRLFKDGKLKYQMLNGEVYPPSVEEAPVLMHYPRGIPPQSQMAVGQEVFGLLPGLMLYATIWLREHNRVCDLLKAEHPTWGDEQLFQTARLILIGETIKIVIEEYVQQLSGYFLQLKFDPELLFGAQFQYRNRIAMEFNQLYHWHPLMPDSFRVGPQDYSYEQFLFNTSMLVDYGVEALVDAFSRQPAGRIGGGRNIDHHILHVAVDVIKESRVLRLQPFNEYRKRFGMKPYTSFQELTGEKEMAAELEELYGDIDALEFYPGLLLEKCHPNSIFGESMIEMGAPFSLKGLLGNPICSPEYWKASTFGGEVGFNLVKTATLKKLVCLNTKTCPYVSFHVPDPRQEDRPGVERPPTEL
SMILES,Activity [1] [%],Ratio IC50 [2],Activity [3] [%],IC50 [4] [µM]
CC(=O)Nc1ccc(/C(=C\c2ccc(S(C)(=O)=O)cc2)C(=O)OCO/N=[N+](/[O-])N2CCCC2)cc1,9.9,> 106,73,> 100
CCN(CC)/[N+]([O-])=N\OCOC(=O)/C(=C/c1ccc(S(C)(=O)=O)cc1)c1cccc(Br)c1,3.2,0.03,59.2,1.1
CCN(CC)/[N+]([O-])=N\OCOC(=O)/C(=C/c1ccc(S(C)(=O)=O)cc1)c1ccc(NC(C)=O)cc1,6.5,> 5.9,70.4,> 100
CCN(CC)/[N+]([O-])=N/O,85,–,85.1,–
CS(=O)(=O)c1ccc(/C=C(/C(=O)OCO/N=[N+](/[O-])N2CCCC2)c2ccc(F)cc2)cc1,11.3,> 9.2,67.1,> 100
CCN(CC)/[N+]([O-])=N\OCOC(=O)/C(=C/c1ccc(S(C)(=O)=O)cc1)c1ccc(F)cc1,7.1,0.43,75.3,1
CS(=O)(=O)c1ccc(/C=C(/C(=O)OCO/N=[N+](/[O-])N2CCCC2)c2cccc(Br)c2)cc1,6.9,0.22,48.6,2.5
